Results on eleven compounds are retold here after ChEMBL document CHEMBL1201862, “PubChem BioAssay data set” (2004).

Structures are written as SMILES.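 The compound was tested at five concentrations on cells cultured in 96-well plates, with a 48-hour exposure period. The concentration for 50% growth inhibition is given as GI50.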 Active and inactive are the calls of the source. Rule as the data show it: active = GI50 up to about 1.1 µM and inactive = higher. A value given as a limit tells only on which side of the number the result lay.

Test systems include MDA-MB-231; NCI-H522; TK-10; HOP-62; M14; HT-29; IGROV-1; UACC-257; MOLT-4; CCRF-CEM; EKVX; HL-60; SNB-75; T47D; NCI-H23; OVCAR-8; SF-268; NCI/ADR-RES; SF-539; HCC 2998.
Test in all cases: NCI tumour cell line growth inhibition, 48 h

`COC(=O)C(CSSC[C@H](N/C(C)=C/C(C)=O)C(=O)OC)N/C(C)=C/C(C)=O` (some centres undefined): the GI50 with MDA-MB-231 was > 100 µM (inactive); in the experiment with NCI-H522 it was 13.9 µM (inactive); in the experiment with TK-10 it was 2.66 µM (inactive); in the experiment with HOP-62, 57.9 µM (inactive); in the experiment on M14, 30.8 µM (inactive); with HT-29, 38.7 µM (inactive). Moreover, the GI50 in the experiment with IGROV-1 is 36.7 µM (inactive); with UACC-257, 32.7 µM (inactive); in the experiment on MOLT-4, 32.3 µM (inactive); in the experiment on CCRF-CEM, 26.4 µM (inactive); in the experiment with EKVX, 16.4 µM (inactive); with HL-60, 30.2 µM (inactive). Further, the GI50 was 71.4 µM (inactive) in the experiment on SNB-75; 16.6 µM (inactive) in the experiment with T47D; > 100 µM (inactive) in the experiment on NCI-H23; < 0.01 µM (active) in the experiment on OVCAR-8; 42.2 µM (inactive) with SF-268; > 100 µM (inactive) in the experiment on NCI/ADR-RES. Also, the GI50 with SF-539 is 53 µM (inactive).

For `CCOC(=O)c1nnc2c(C#N)c(-c3ccccc3)c(C)n2c1N`, the GI50 is 51.8 µM (inactive) in the experiment on MDA-MB-231; 27.7 µM (inactive) in the experiment on NCI-H522; 37 µM (inactive) in the experiment with TK-10; 85.7 µM (inactive) in the experiment on HOP-62; 34.9 µM (inactive) in the experiment on M14; 32.5 µM (inactive) in the experiment with HCC 2998. Further, the GI50 in the experiment with HT-29 was 33.7 µM (inactive); in the experiment on IGROV-1, 22.2 µM (inactive); in the experiment with UACC-257 it was 25.4 µM (inactive); with MOLT-4, 30.5 µM (inactive); in the experiment on CCRF-CEM it was 39.7 µM (inactive); in the experiment on EKVX, 38 µM (inactive). Also, the GI50 is 53.7 µM (inactive) in the experiment on T47D; 38.3 µM (inactive) with NCI-H23; 28.4 µM (inactive) with OVCAR-8; 37.7 µM (inactive) in the experiment on SF-268; 38.8 µM (inactive) with NCI/ADR-RES; 30.9 µM (inactive) in the experiment with SF-539.

For `C#CCOC(=O)C(N)CCSC` (centres undefined), the GI50 in the experiment on MDA-MB-231, in the experiment with NCI-H522, with TK-10, in the experiment with HOP-62, in the experiment with M14 and with HT-29 was > 100 µM (inactive) in each case. For the same compound, the GI50 with IGROV-1, with UACC-257, in the experiment with MOLT-4, in the experiment with CCRF-CEM, in the experiment with EKVX and in the experiment on HL-60 was > 100 µM (inactive) in each case. Also, the GI50 in the experiment with SNB-75, with T47D, with NCI-H23, in the experiment on OVCAR-8, with SF-268 and in the experiment on NCI/ADR-RES was > 100 µM (inactive) each time.

Regarding `N#Cc1c(N2CCN(c3ccc([N+](=O)[O-])cc3)CC2)[n+]([O-])c2ccccc2[n+]1[O-]`, the GI50 in the experiment with MDA-MB-231 is > 100 µM (inactive); in the experiment on NCI-H522 it was 3.5 µM (inactive); with TK-10 it was > 100 µM (inactive); in the experiment with HOP-62 it was > 100 µM (inactive); in the experiment with M14 it was > 100 µM (inactive); in the experiment with HCC 2998, > 100 µM (inactive). Further, the GI50 is > 100 µM (inactive) in the experiment on HT-29; 17.4 µM (inactive) with IGROV-1; > 100 µM (inactive) in the experiment with UACC-257; 1.93 µM (inactive) in the experiment on MOLT-4; 4.94 µM (inactive) in the experiment on CCRF-CEM; > 100 µM (inactive) with EKVX. For the same compound, the GI50 is > 100 µM (inactive) with SNB-75; 55.6 µM (inactive) in the experiment on T47D; > 100 µM (inactive) with NCI-H23; 20.5 µM (inactive) in the experiment with OVCAR-8; 0.346 µM (active) in the experiment on SF-268; 79.4 µM (inactive) in the experiment on NCI/ADR-RES. Besides, the GI50 in the experiment on SF-539 was 38.3 µM (inactive).

Turning to `O=C(Cn1nnc(-c2ccccc2)n1)N/N=C/c1cn(Cc2ccc(Cl)cc2Cl)c2ccccc12`, the GI50 in the experiment with MDA-MB-231 is > 100 µM (inactive); in the experiment with NCI-H522 it was 43.1 µM (inactive); in the experiment on TK-10, > 100 µM (inactive); in the experiment on HOP-62 it was > 100 µM (inactive); with M14, > 100 µM (inactive); in the experiment with HT-29, > 100 µM (inactive). Further, the GI50 with IGROV-1 was > 100 µM (inactive); in the experiment with UACC-257, > 100 µM (inactive); with MOLT-4, > 100 µM (inactive); in the experiment with CCRF-CEM, 44.1 µM (inactive); in the experiment on EKVX, 44.5 µM (inactive); with HL-60, 39.6 µM (inactive). Further, the GI50 was 45.1 µM (inactive) with SNB-75; 47.2 µM (inactive) in the experiment on T47D; > 100 µM (inactive) in the experiment with NCI-H23; > 100 µM (inactive) with OVCAR-8; 31.8 µM (inactive) with SF-268; > 100 µM (inactive) with NCI/ADR-RES. Also, the GI50 in the experiment with SF-539 was > 100 µM (inactive).

In the case of `COC(=O)C1=C(O)C(C(=O)OC)[C@]2(O)[C@H](C(=O)OC)[C@H]1C[C@@H](c1ccc(OC)cc1)[C@H]2C(=O)OC` (some centres undefined), the GI50 was 30 µM (inactive) with MDA-MB-231; 2.36 µM (inactive) in the experiment on NCI-H522; 34.3 µM (inactive) in the experiment on TK-10; 29.9 µM (inactive) in the experiment on HOP-62; 23.8 µM (inactive) in the experiment on M14; 17.8 µM (inactive) in the experiment on HCC 2998. The GI50 in the experiment on HT-29 was 29.8 µM (inactive); in the experiment on IGROV-1, 34.6 µM (inactive); in the experiment with UACC-257, 24.7 µM (inactive); in the experiment with MOLT-4, 10.2 µM (inactive); with EKVX, 26.3 µM (inactive); with SNB-75, 27.9 µM (inactive). The GI50 with T47D is 22.3 µM (inactive); in the experiment on NCI-H23 it was 23.6 µM (inactive); with OVCAR-8, 30.7 µM (inactive); in the experiment on SF-268 it was 19.6 µM (inactive); with NCI/ADR-RES, 23.8 µM (inactive); with SF-539, 28.3 µM (inactive).

`CC1(CC(=O)O)OC2CCCCCC2O1.NCc1ccccc1` (centres undefined): the GI50 with MDA-MB-231 is > 100 µM (inactive); in the experiment on NCI-H522 it was > 100 µM (inactive); in the experiment on TK-10, > 100 µM (inactive); in the experiment with HOP-62, > 100 µM (inactive); in the experiment on M14 it was > 100 µM (inactive); with HT-29, 64.1 µM (inactive). For the same compound, the GI50 in the experiment with IGROV-1 is > 100 µM (inactive); in the experiment with UACC-257 it was 53.5 µM (inactive); in the experiment on MOLT-4 it was > 100 µM (inactive); in the experiment with CCRF-CEM, 34.2 µM (inactive); with EKVX, 20.2 µM (inactive); with HL-60 it was > 100 µM (inactive). Besides, the GI50 was 99.3 µM (inactive) with SNB-75; 92.9 µM (inactive) with T47D; > 100 µM (inactive) in the experiment on NCI-H23; > 100 µM (inactive) in the experiment with OVCAR-8; > 100 µM (inactive) with SF-268; > 100 µM (inactive) in the experiment on NCI/ADR-RES. Moreover, the GI50 in the experiment on SF-539 is > 100 µM (inactive).

Turning to `CCOC1OC(CO[Si](C)(C)C(C)(C)C)C(O)CC1n1ccc(=O)[nH]c1=O` (centres undefined), the GI50 in the experiment with MDA-MB-231 was 67 µM (inactive); in the experiment on NCI-H522, 20.6 µM (inactive); with TK-10 it was > 100 µM (inactive); with M14 it was 26.8 µM (inactive); in the experiment with HCC 2998 it was > 100 µM (inactive); in the experiment on HT-29, 47.5 µM (inactive). Moreover, the GI50 is 21.5 µM (inactive) in the experiment on IGROV-1; > 100 µM (inactive) in the experiment with UACC-257; 27.7 µM (inactive) with MOLT-4; > 100 µM (inactive) in the experiment on EKVX; > 100 µM (inactive) in the experiment with SNB-75; 52 µM (inactive) with T47D. Further, the GI50 in the experiment on NCI-H23 was > 100 µM (inactive); with OVCAR-8, 33.7 µM (inactive); in the experiment on SF-268 it was 30.8 µM (inactive); in the experiment on NCI/ADR-RES, > 100 µM (inactive); with SF-539, 75.7 µM (inactive).

As to `CCC1=CC(OCc2ccccc2)C(CCN(Cc2ccccc2)C(=O)OCc2ccccc2)C1` (centres undefined), the GI50 in the experiment on MDA-MB-231 is 18.5 µM (inactive); in the experiment with NCI-H522, 11.7 µM (inactive); with TK-10 it was 16.5 µM (inactive); with HOP-62, 16.5 µM (inactive); in the experiment with M14 it was 13.7 µM (inactive); in the experiment with HCC 2998 it was 16.5 µM (inactive). Besides, the GI50 is 17.9 µM (inactive) in the experiment with HT-29; 15.6 µM (inactive) in the experiment with IGROV-1; 13.9 µM (inactive) with UACC-257; 10.2 µM (inactive) with MOLT-4; 16.1 µM (inactive) in the experiment with EKVX; 10.3 µM (inactive) in the experiment with SNB-75. Further, the GI50 with T47D is 6.01 µM (inactive); in the experiment with NCI-H23 it was 14.9 µM (inactive); in the experiment with OVCAR-8, 17.5 µM (inactive); with SF-268, 15.6 µM (inactive); in the experiment with NCI/ADR-RES it was 15.9 µM (inactive); in the experiment with SF-539, 20.6 µM (inactive).

For `N#Cc1nc(C#N)c(NC(=O)c2ccccc2C(=O)O)[nH]1`, the GI50 in the experiment on MDA-MB-231, in the experiment with NCI-H522, with TK-10, in the experiment on HOP-62, in the experiment with M14 and with HT-29 was > 100 µM (inactive) each time. Further, the GI50 in the experiment with IGROV-1, in the experiment on UACC-257, in the experiment on MOLT-4, in the experiment with CCRF-CEM, in the experiment on EKVX and in the experiment on HL-60 was > 100 µM (inactive) in each case. Besides, the GI50 in the experiment with SNB-75, with T47D, in the experiment on NCI-H23, with OVCAR-8, in the experiment with SF-268 and with NCI/ADR-RES was > 100 µM (inactive) in each case. The GI50 in the experiment on SF-539 was > 100 µM (inactive).

Regarding `COC12OC3(C4OC41)C(C(=O)O[C@H]3CO[Si](C)(C)C(C)(C)C)C2S(=O)(=O)c1ccccc1` (some centres undefined), the GI50 with MDA-MB-231 is > 4.65 µM (inactive); with NCI-H522, 17.1 µM (inactive); in the experiment with TK-10 it was 4.06 µM (inactive); in the experiment with HOP-62, > 4.65 µM (inactive); with HCC 2998, > 100 µM (inactive); in the experiment on UACC-257, > 4.65 µM (inactive). For the same compound, the GI50 in the experiment with MOLT-4 was 2.25 µM (inactive); with CCRF-CEM, 0.597 µM (active); in the experiment on EKVX, > 4.65 µM (inactive); with HL-60, < 0.01 µM (active); in the experiment with T47D, > 83.9 µM (inactive); in the experiment on NCI-H23, > 100 µM (inactive). Besides, the GI50 was 4.65 µM (inactive) in the experiment with OVCAR-8, > 100 µM (inactive) in the experiment with NCI/ADR-RES and > 100 µM (inactive) with SF-539.
